Data on 27 compounds can be found in the supplement of paper PMC10290057.

Structures can show the parent of a compound that is named as a salt.
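Also: Luminescence-based viability readout, five doses per compound, normalized against on-plate DMSO and empty-well controls, followed by dose-response curve fitting for every drug.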

In this test the test system is HCT116. The test can be described thus: efficacy (fitted maximal change in viability relative to DMSO control); higher = less cytotoxic (negative = loss of viability). The following applies: 48 h.
For the compound `C=C(c1ccc(C(=O)O)cc1)c1cc2c(cc1C)C(C)(C)CCC2(C)C` [Bexarotene], the efficacy is -19.6%.

In the case of `CC(O)(C[S+](=O)([O-])c1ccc(F)cc1)C(=O)Nc1ccc(C#N)c(C(F)(F)F)c1` (configuration not stated) [Bicalutamide], the efficacy is -14.2%.

In the case of `CCNC(=O)CCC/C=C\C[C@@H]1[C@@H](/C=C/C(O)CCc2ccccc2)[C@@H](O)C[C@@H]1O` (some centres not stated) [Bimatoprost], the efficacy is -24.4%.

For the compound `COC1=CC=C(C=C1)C/2=C/OC3=C(C(=CC(=C3)O)O)C2=O` [Biochanin A], the efficacy was -34.7%.

For `N=C1S/C(=C\c2ccc(-c3ccc4c(c3)C(=O)NC4=O)o2)C(=O)N1c1ccc(Br)cc1` [Bioymifi], the efficacy is -15.3%.

For `OC(CCN1CCCCC1)(C2CC\3CC2\C=C3)C4=CC=CC=C4` (configuration not stated) [Biperiden], the efficacy is -34.7%.

On to `CC[C@H](NC(=O)[C@H](C)NC)C(=O)N1C[C@@H](O)C[C@H]1Cc1c(-c2[nH]c3cc(F)ccc3c2C[C@@H]2C[C@H](O)CN2C(=O)[C@H](CC)NC(=O)[C@H](C)NC)[nH]c2cc(F)ccc12` [Birinapant], for which the efficacy was -49.9%.

For `CC/C(=C(/c1ccc(/C=C/C(=O)O)cc1)c1ccc2[nH]ncc2c1)c1ccc(F)cc1Cl` [Brilanestrant], the efficacy is -35.5%.

For `CCCCCCCCCCCCCCCCOCCCO[P](O)(=O)COC(CO)CN1/C=C\C(=N/C1=O)N` (configuration not stated) [Brincidofovir], the efficacy is -6.44%.

With `CN(Cc1cc(Br)cc(Br)c1N)C1CCCCC1` [Bromhexine hydrochloride], the efficacy is -27.2%.

For the compound `CCCCOc1ccc(CC(=O)NO)cc1` [Bufexamac], the efficacy is -14.9%.

Take `COc1cc(OC)c(C(=O)CCCN2CCCC2)c(OC)c1` [Buflomedil hydrochloride]: the efficacy is -7.04%.

With `CCCCNc1cc(C(=O)O)cc([S+](N)(=O)[O-])c1Oc1ccccc1` [Bumetanide], the efficacy is -7.8%.

Take `C[S+](=O)([O-])OCCCCO[S+](C)(=O)[O-]` [Busulfan]: the efficacy was -5.76%.

Regarding `C=C1C(=O)OC(CCCCCCCC)C1C(=O)O` (configuration not stated) [C75], the efficacy is -6.41%.

Take `CC1=NN(c2ccc(C(=O)O)cc2)C(=O)/C1=C/c1ccc(-c2cc(C)c(C)cc2[N+](=O)[O-])o1` [C-646]: the efficacy is -21%.

Turning to `O=C(NCc1ccccc1)[C@H](Cc1ccccc1)NC(=O)[C@H]1O[C@@H]1C(=O)NCCc1ccc(O)cc1` [CAA-0225], the efficacy is -24.8%.

Take `CN1\C=C(/N=C(NC2=CC=C(C=C2)C(=O)N3CCOCC3)\C1=O)C4=C(C)C(=CC=C4)NC(=O)C5=CC=C(C=C5)C(C)(C)C` [CGI-1746]: the efficacy was -29.2%.

For the compound `Clc1ccc(-c2nc3sccn3c2/C=N/OCc2ccc(Cl)c(Cl)c2)cc1` [CITCO], the efficacy was -19.4%.

`CC(C)C/1=C(NC2=C(C=N[N]2C1=O)C#N)\C3=CC=CC=C3` [CPI-455]: the efficacy is -11.2%.

`O=C(O)CCCCC(CCSCc1ccccc1)SCc1ccccc1` (configuration not stated) [CPI-613]: the efficacy was -19.4%.

For the compound `CC(=O)Nc1ccc(C(=O)NC(C)(C)C)cc1` [CPI-1189], the efficacy was -10.3%.

Take `COC/1=C(\CNC(=O)C2=C(C)[N]([C@H](C)C3CCN(CC3)CC(F)(F)F)C4=C2C=CC=C4)C(=O)N/C(=C1)C` [CPI-1205]: the efficacy is -27.1%.

On to `CCC/1=C(/NC2=C(C=N[N]2C1=O)C#N)C3=CC=CC=C3C` [CPI-4203], for which the efficacy is 17.2%.

Take `CN[C@@H](C)C(=O)N[C@H](C(=O)N1CCC[C@H]1C(=O)Nc1sc(-c2ncco2)nc1-c1ccccc1)C1CCCCC1` [CUDC-427]: the efficacy is -17%.

For the compound `CCCn1c(=O)c2[nH]c(-c3cnn(Cc4cccc(C(F)(F)F)c4)c3)nc2n(CC)c1=O` [CVT-6883], the efficacy is -14.4%.

Consider `Cc1nc(C)c(CN2CCN(C(c3ccc(F)cc3)c3ccc(F)cc3)CC2)nc1C` [CXC-195], for which the efficacy was -77.3%.
